Laboratory results taken from patent US8084465B2, “Derivatives of pryidone and use thereof” (Shanghai Genomics, Inc., priority 2003, dated 2011).

Assays:
[1] = test system: liver fibrosis model induced by DMN; experiment: Mortality of rats in the DMN liver fibrosis model; assay type: in vivo, rat
Procedure: (§1) (a) Generating a carbon tetrachloride model (injected intraperitoneally with 40% CCl4 mixed with oil, 0.4 ml/100 g, twice per week, for 4 continuous weeks) and a dimethyl nitrosamine liver fibrosis model (injected intraperitoneally with 1% DMN, 10 mg/Kg, twice per week, for 8 continuous weeks).
(§2) (b) The animals of these two models were intragastrically administered with F351 from the 0 day of the model establishment, with the dose at 250 mg/Kg, once per day, for 4 or 8 continuous weeks.
(§3) The rat liver fibrosis models established by induction with CCl4 and DMN were treated with F351 in the same manner in Example 3. The body weight and mortality of the rates were observed.

fibroblast = experiment: MTT assay, proliferation of fibroblast cultured in vitro; assay type: cell-based
Procedure: The inhibitory effect of F351 on the proliferation of fibroblast cultured in vitro was tested using the following method. F351 was dissolved in 0.5% DMSO. The fibroblast was treated with F351 of different amount (FIG. 1 and FIG. 2) for 5 days. The agent was refreshed once every 48 hrs. Pirfenidone was used in parallel experiments in order to compare the effects of these two agents.
MTT assay: […] cell suspension was added into each well of a 96-well plate, 4 parallel wells per group. The concentration of the agent and the culture time remained unchanged. Then 10 μL 5 g/L MTT (3-(4,5-dimethylthiazol-2-yl)-2,5-diphenyltetrazolium bromide) was added to each well for another 4 hrs of culture. 100 uL DMSO was added to each well. Gently vortex to make a uniform mixture. After about 10 mins, OD values at 570 nm and 630 nm were measured by an enzyme linked immune detector (BIO RAD 550). The cell viability rate was calculated in accordance with the following formula: Viability rate=[(experimental well OD570−experimental well OD630)/(control well OD570−control well OD630)]×100% Inhibition rate (or proliferation rate)=100%−viability rate

[2] = test system: rat with liver fibrosis induced by DMN; experiment: Serum transaminase (ALT) level in the DMN liver fibrosis model; assay type: in vivo; conditions: DMN model + F351, week 4; DMN model group 74±18.25, control group 27±5.09; P<0.05
Procedure: as §1, §2
(§4) The rat liver fibrosis models established by induction with CCl4 and DMN were treated with F351 in the same manner in Example 3. The serum of the rats was extracted and the level of the serum transaminase was measured.

[3] = test system: rat liver fibrosis model induced by CCl4; experiment: Rat liver fibrosis model induced by CCl4, liver pathology; assay type: in vivo; conditions: 4 weeks, 250 mg/Kg intragastrically once per day, model group S4-S6, P=0.001
Procedure: (§5) A rat liver fibrosis model was established by induction with CCl4 and DMN (dimethyl nitrosamine)) respectively, and treated with F351 for 4 weeks, 8 weeks. The livers of the animal were harvested to observe the pathologic results. The method was as follows:
as §1, §2

[4] = test system: liver fibrosis model induced by CCl4; experiment: Mortality of rats in the CCl4 liver fibrosis model; assay type: in vivo; conditions: 250 mg/Kg once per day
Procedure: as §1, §2, §3

[5] = test system: rat with liver fibrosis induced by CCl4; experiment: Serum transaminase (ALT) level in the CCl4 liver fibrosis model; assay type: in vivo; conditions: CCl4 model + F351, week 4; CCl4 model group 52±17.15, control group 27±5.09; P<0.05
Procedure: as §1, §2, §4

[6] = test system: rat liver fibrosis model induced by DMN (dimethyl nitrosamine); experiment: Rat liver fibrosis model induced by DMN, liver pathology; assay type: in vivo
Procedure: as §5, §1, §2

## Cc1ccc(=O)n(-c2ccc(O)cc2)c1 [F351, 5-methyl-1-(4-hydroxylphenyl)-2-(1H)-pyridone]
[1]; week 4, 250 mg/Kg once per day, control group 7 of 25 rats survived
  rats survived: 24
[1]; week 8, 250 mg/Kg once per day, control group 2 of 25 rats survived
  rats survived: 18
fibroblast; FIG. 2, versus Pirfenidone control
  activity for inhibiting the fibroblast viability: higher than that of the Pirfenidone control
fibroblast; MTT assay, treated for 5 days, compared with Pirfenidone in parallel, FIG. 1 and FIG. 2
  inhibitory effect on the fibroblast: more significant than that of Pirfenidone
[2]
  ALT serum level: 54±17.25
[3]
  pathologic changes (fibrosis dimension around the central veins and the sinus): obviously reduced
[4]
  mortality of the rats: did not increase the mortality
[5]
  ALT serum level: 45±17.68
[6]; week 4, 250 mg/Kg intragastrically once per day, versus model group, P<0.001
  liver lesion (hepatocyte necrosis, hemorrhage, collagen deposition, fibrosis): significantly reduced
[6]; week 8, 250 mg/Kg intragastrically once per day, versus control group
  fibrosis around the sinus (pathologic results): obviously better than the control group
